From article PMC12686454 (EMBO Molecular Medicine, 2025)
Where a name gives a salt, the structure may show the parent alone.

Assays:
[1] = tested on: T1, A. baumannii Ab ATCC 17978; assay: microbe, parasite or virus in culture; parameters: species or system A. baumannii ATCC 17978; Bacterial growth inhibition, OD600, dose-response in 384-well plates, AC50; conditions: Acinetobacter baumannii, ATCC17978, 24 h
T1 construct: ATCC 17978
Procedure: (§1) EU-OPENSCREEN provided a subset of 2,464 bioactive compounds from the ECBL pilot library (EU-OPENSCREEN: European Chemical Biology Library - Pilot Library) as 10 mM stock solutions in 100% DMSO. The library was screened in duplicate at a final concentration of 100 μM per well (1% DMSO). The antibacterial single-concentration HTS and dose–response susceptibility assays were conducted in 384-well plates, with bacterial cell density measured by optical density at 600 nm (OD600). Compounds were distributed in duplicate on separate 384-well microtiter plates using an Echo 550® acoustic [compound left out] handler (Beckman Coulter™, Indianapolis, IN) and inoculated with bacteria to a final concentration of 10^6 CFU/mL, with a total assay volume of 25.25 μL. Plates were incubated with shaking for 24 h at 37 °C. Bacterial growth was measured by reading the OD600 using an EnVision™ microplate reader (Revvity, Waltham, MA). The activity of the compounds was expressed as the percentage of bacterial growth inhibition, and it was calculated using the following normalization: %Inhibition=100×1−(TfSample−TOSample)−(TfBlank−TOBlank)/(TfGrowth−TOGrowth)−(TfBlank−TOBlank) Where, T0 Sample is the absorbance of the strain growth in the presence of compound measured at time zero, Tf Sample is the absorbance of the strain growth in the presence of compound measured at final time, T0 Growth is the absorbance of the strain growth in the absence of compound measured at time zero, Tf Growth is the absorbance of the strain growth in the absence of compound measured at final time, T0 Blank is the absorbance of the broth medium (blank) measured at time zero, Tf Blank: the absorbance of the broth medium (blank) measured at final time; T0 is Time at 0 h and Tf is Time at 24 h. We developed and validated a high-throughput screen assay using 2464 bioactive compounds from the EU-OPENSCREEN pilot library, dispensed in 384-well plates at 100 μM final concentration, and the A. baumannii Ab ATCC 17978 and E. coli ATCC 25922 strains, as well as their respective MDR strains (Ab186 and MCR1^+) (Fig. 1A). We identified 33 compounds ([…] of the total compounds) with inhibitory activity of ≥70% against at least one or both MDR strains of Ab186 and E. coli MCR1^+. […] This compound was active against the Ab ATCC 17978 and E. coli ATCC 25922 strains, with AC50 values of 23.57 μM and 46.86 μM, respectively (Fig. 1C).

E. coli ATCC 25922 = tested on: T2, E. coli ATCC 25922; assay: microbe, parasite or virus in culture; parameters: Bacterial growth inhibition, OD600, dose-response in 384-well plates, AC50; conditions: Escherichia coli, ATCC25922, 24 h
T2 construct: ATCC 25922
Procedure: as §1

enolase (AbEnolase) = molecular target: T3, enolase (AbEnolase) (Acinetobacter baumannii, UniProt A3M5Y1); assay: isothermal titration calorimetry ([…] °C, […] protein, […] ENOblock, single-site model, n = […]); type: binding
T3 construct: gene eno; wild-type enolase gene in pET-30a(+) with an N-terminal His6 tag, purified recombinant
T3 sequence (A3M5Y1 whole entry): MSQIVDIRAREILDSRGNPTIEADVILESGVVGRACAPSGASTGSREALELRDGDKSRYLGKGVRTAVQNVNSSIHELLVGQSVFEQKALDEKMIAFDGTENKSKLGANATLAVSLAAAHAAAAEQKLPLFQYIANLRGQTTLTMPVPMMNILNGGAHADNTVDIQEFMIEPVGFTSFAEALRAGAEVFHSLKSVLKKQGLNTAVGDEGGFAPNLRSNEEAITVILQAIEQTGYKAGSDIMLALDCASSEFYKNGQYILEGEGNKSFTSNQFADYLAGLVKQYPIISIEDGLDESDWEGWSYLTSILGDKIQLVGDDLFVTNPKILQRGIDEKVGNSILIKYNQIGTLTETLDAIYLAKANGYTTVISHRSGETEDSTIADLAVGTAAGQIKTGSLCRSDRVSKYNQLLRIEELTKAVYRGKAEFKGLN

| SMILES | AC50 [1] [µM] | AC50 (E. coli ATCC 25922) [µM] | Kd (enolase (AbEnolase)) [µM] |
| --- | --- | --- | --- |
| Oc1c(Cl)cc(Cl)c(Cl)c1Cc1c(O)c(Cl)cc(Cl)c1Cl [EOS100333, HEXACHLOROPHENE] | 4.77 | 37.3 | – |
| C[C@@H]1CCO[C@H]2Cn3cc(C(=O)NCc4ccc(F)cc4F)c(=O)c(O)c3C(=O)N12 [EOS101330, DOLUTEGRAVIR] | 21.9 | – | – |
| Oc1c(Cl)cc(Cl)c2cccnc12 [EOS100951, CHLOROXINE] | 7.47 | 10.1 | – |
| COc1cc(/C=C/C(O)=C/C(=O)/C=C/c2ccc(O)cc2)ccc1O [EOS100220, DEMETHOXYCURCUMIN] | 51 | 56.1 | – |
| C=C1c2cccc(O)c2C(=O)C2=C(O)[C@]3(O)C(=O)C(C(N)=O)=C(O)[C@@H](N(C)C)[C@@H]3[C@@H](O)[C@H]12 [EOS100925, METHACYCLINE HYDROCHLORIDE] | – | 95 | – |
| CC(C)(Cc1ccc2ccccc2c1)NC[C@@H](O)COc1cccc(Cl)c1C#N [EOS101044, NPS-2143] | 27.2 | 47.6 | – |
| C[C@H]1CO[C@@H]2Cn3cc(C(=O)NCc4ccc(F)cc4F)c(=O)c(O)c3C(=O)N12 [EOS100194, CABOTEGRAVIR] | 113 | – | – |
| c1ccc2c(c1)[I+]c1ccccc1-2 [EOS101209, DIPHENYLENEIODONIUM] | 3.09 | 2.02 | – |
| COc1cc(NCc2ccc3nc(N)nc(N)c3c2C)cc(OC)c1OC [EOS101467, TRIMETREXATE] | 24.1 | 1.99 | – |
| Oc1cccc2cccnc12 [EOS100874, OXYQUINOLINE] | 71.9 | 173 | – |
| Cc1nc2c(=O)n(C)c(=O)nc-2n(C)n1 [EOS100293, 3-METHYLTOXOFLAVIN] | 14.3 | 9.33 | – |
| O=[N+]([O-])c1ccc(Sc2cccc[n+]2[O-])c2nonc12 [EOS100077, NSC228155] | 32 | 19.1 | – |
| NCCOCCOCCNC(=O)Cc1ccc(Nc2nc(NCc3ccc(F)cc3)nc(NCC3CCCCC3)n2)cc1 [ENOblock] | – | – | 2.9 ± 0.78 |
| c1ccc(-c2cccc(-c3ccccn3)n2)nc1 [EOS102213, TERPYRIDINE] | 13.1 | 52.3 | – |
| Oc1c(I)cc(I)c2cccnc12 [EOS100343, DIIODOHYDROXYQUINOLINE] | 62.8 | 55.1 | – |
| CN(C)c1ccc(C(=C2C=CC(=[N+](C)C)C=C2)c2ccc(N(C)C)cc2)cc1 [EOS102093, GENTIAN VIOLET] | 32.7 | – | – |

| SMILES | AC50 [1] [µM] | AC50 (E. coli ATCC 25922) [µM] | Kd (enolase (AbEnolase)) [µM] |
| --- | --- | --- | --- |
| CC(C)C[C@H](NC(=O)[C@H](CCc1ccccc1)NC(=O)CN1CCOCC1)C(=O)N[C@@H](Cc1ccccc1)C(=O)N[C@@H](CC(C)C)C(=O)[C@@]1(C)CO1 [EOS101232, CARFILZOMIB] | – | 31.4 | – |
| O=S(=O)(NCCNC/C=C/c1ccc(Br)cc1)c1cccc2cnccc12 [EOS101763, H-89 DIHYDROCHLORIDE] | – | 65.9 | – |
| Cc1ccc2c(Cl)cc(Cl)c(O)c2n1 [EOS100722, CHLORQUINALDOL] | 42.2 | 20.4 | – |
| Cn1cc(C2=C(c3cn(CCCSC(=N)N)c4ccccc34)C(=O)NC2=O)c2ccccc21 [EOS101001, BISINDOLYLMALEIMIDE IX] | 48.9 | 109 | – |
| CCN1CCN(C(c2ccc(C(F)(F)F)cc2)c2ccc3cccnc3c2O)CC1 (centres unmarked) [EOS100820, ML311] | 32.7 | 82.9 | – |
| NCCOCCOCCNC(=O)Cc1ccc(Nc2nc(NCc3ccc(F)cc3)nc(NCC3CCCCC3)n2)cc1 [EOS100979, AP-III-A4(ENOBLOCK)] | 23.6 | 46.9 | – |
| Cc1c2ccncc2c(C)c2c1[nH]c1ccccc12 [EOS100555, ELLIPTICINE] | 48.9 | 64 | – |
| [O-][n+]1ccccc1S [EOS101921, PYRITHIONE] | 33.9 | 17.8 | – |
| CCc1nc(N)nc(N)c1-c1ccc(Cl)cc1 [EOS101458, PYRIMETHAMINE] | – | 129 | – |
| NC(=S)N/N=C/c1ncccc1N [EOS100248, TRIAPINE] | 65.7 | 101 | – |
| C/C(=N\N=C(N)N)c1cc(NC(=O)CCCCCCCCC(=O)Nc2cc(/C(C)=N/N=C(N)N)cc(/C(C)=N/N=C(N)N)c2)cc(/C(C)=N/N=C(N)N)c1 [EOS101827, SEMAPIMOD] | 23.2 | 7.07 | – |
| Oc1c(Cl)cc(Cl)cc1Sc1cc(Cl)cc(Cl)c1O [EOS101771, BITHIONOL] | 14.6 | 42.9 | – |
| CCN1/C(=C/c2ccc3ccccc3[n+]2CC)C=Cc2ccccc21 [EOS102018, DECYNIUM 22] | 54.3 | 92.9 | – |
| CC(C)c1cccc(=O)c(O)c1 [EOS100813, HINOKITIOL] | 41 | 48.3 | – |
| COc1ccc(Cc2cnc(N)nc2N)cc1OC [EOS100884, DIAVERIDINE] | – | 1.26 | – |
